Structures are written as SMILES.

This assay relates to human monocytic leukemia U937 cells. The assay can be described thus: necroptosis assay in U937 cells. The class given is cell-based. The conditions noted are these: Homo sapiens, U-937, U937 cells; viability by cellular ATP (Cell Titer-Glo); read-out: mean pIC50, inhibition of necrosis in U937 cells (converted). The protocol:
The efficacy of RIP1 inhibitors can be tested […] in vitro using a human monocytic leukemia U937 or mouse L929 fibrosarcoma cells in a necroptosis assay. As determined using the method described in He, S. et al. 2009. Cell 137(6):1100-1111 and International Patent Appln. No. PCT/IB2014/059004, now, International Patent Appln. Pub.
Viability was measured by quantitating cellular levels of ATP using the Cell Titer-Glo kit. All data are means±standard deviation of the mean.
In the case of `O=C(C1CCN(c2ncc(F)cn2)CC1)N1N=CCC1c1ccccc1` (stereo not shown) [Example 6, (1-(5-fluoropyrimidin-2-yl)piperidin-4-yl)(5-phenyl-4,5-dihydro-1H-pyrazol-1-yl)methanone], the IC50 was 1 to 100 nM.

As for `O=C(C1CCN(c2ncc(F)cn2)CC1)N1N=CCC1c1cncc(F)c1` (stereo not shown) [Example 9], the IC50 is 1 to 100 nM. In the case of `O=C(C1CCN(c2ncc(F)cn2)CC1)N1N=CC[C@H]1c1cncc(F)c1` [Example 10, (S)-(5-(5-fluoropyridin-3-yl)-4,5-dihydro-1H-pyrazol-1-yl)(1-(5-fluoro-pyrimidin-2-yl)piperidin-4-yl)methanone], the IC50 was 1 to 100 nM.

On to `CC(C)(C)C(=O)N1N=CCC1c1cncc(F)c1` (stereo not shown) [Example 14, 1-(5-(5-fluoro-pyridin-3-yl)-4,5-dihydro-1H-pyrazol-1-yl)-2,2-dimethyl-propan-1-one], for which the IC50 is 1 to 100 nM. For the compound `O=C(C1CCN(c2ccccc2)CC1)N1N=CCC1c1ccccc1` (stereo not shown) [Example 18, (5-phenyl-4,5-dihydro-1H-pyrazol-1-yl)(1-phenylpiperidin-4-yl)-methanone], the IC50 was 1 to 100 nM. To `O=C(C1CCN(c2ccccc2)CC1)N1N=CC[C@H]1c1ccccc1` [Example 19, (S)-(5-phenyl-4,5-dihydro-1H-pyrazol-1-yl)(1-phenyl-piperidin-4-yl)-methanone] belongs 1 to 100 nM; to `O=C(C1CCCC1)N1N=CCC1c1ccccc1` (stereo not shown) [Example 22, cyclopentyl(5-phenyl-4,5-dihydro-1H-pyrazol-1-yl)methanone], 1 to 100 nM; to `Cc1cccc(C(=O)N2N=CCC2c2ccccc2)c1` (stereo not shown) [Example 23, (5-phenyl-4,5-dihydro-1H-pyrazol-1-yl)(m-tolyl) methanone], about 501 nM. For the compound `CC(C)(C)C(=O)N1N=CC[C@H]1c1cccnc1` [Example 42, (S)-2,2-dimethyl-1-(5-(pyridin-3-yl)-4,5-dihydro-1H-pyrazol-1-yl)-propan-1-one], the IC50 was about 251 nM.

Take `CC(C)(C)C(=O)N1N=CCC1c1cccc(Cl)c1` (stereo not drawn) [Example 43, 1-(5-(3-chlorophenyl)-4,5-dihydro-1H-pyrazol-1-yl)-2,2-dimethyl propan-l-one]: the IC50 was 1 to 100 nM. The result for `Cc1ccc(C2CC=NN2C(=O)C(C)(C)C)c(F)c1` (stereo not shown) [Example 53, 1-(5-(2-fluoro-4-methylphenyl)-4,5-dihydro-1H-pyrazol-1-yl)-2,2-dimethyl-propan-1-one] reads 1 to 100 nM. `Cc1ccc(C2CC=NN2C(=O)C(C)(C)C)cc1F` (stereo not shown) [Example 54, 1-(5-(3-fluoro-4-methylphenyl)-4,5-dihydro-1H-pyrazol-1-yl)-2,2-dimethyl-propan-1-one]: the IC50 was 1 to 100 nM. As for `Cc1ccc(C2CC=NN2C(=O)C(C)(C)C)cc1` (stereo not shown) [Example 58, 2,2-dimethyl-1-(5-(p-tolyl)-4,5-dihydro-1H-pyrazol-1-yl)propan-1-one], the IC50 was 1 to 100 nM. Regarding `Cc1ccccc1C1CC=NN1C(=O)C(C)(C)C` (stereo not shown) [Example 60, 2,2-dimethyl-1-(5-(o-tolyl)-4,5-dihydro-1H-pyrazol-1-yl)propan-1-one], the IC50 was 1 to 100 nM.

For the compound `O=C(c1ccccc1)N1N=CCC1c1ccccc1` (stereo not shown) [Example 64, phenyl(5-phenyl-4,5-dihydro-1H-pyrazol-1-yl)-methanone 2,2,2-trifluoroacetate], the IC50 is about 316 nM. Consider `CC(C)(C)C(=O)N1N=CCC1c1ccc(Cl)cc1` (stereo not shown) [Example 65, 1-(5-(4-chloro-phenyl)-4,5-dihydro-1H-pyrazol-1-yl)-2,2-dimethyl-propan-1-one], for which the IC50 is 1 to 100 nM. In the case of `CC(C)(C)C(=O)N1N=CCC1c1cccc(F)c1` (stereo not shown) [Example 67, 1-(5-(3-fluoro-phenyl)-4,5-dihydro-1H-pyrazol-1-yl)-2,2-dimethylpropan-1-one 2,2,2-trifluoroacetate], the IC50 was 1 to 100 nM.

Turning to `Cc1cc(F)cc(C2CC=NN2C(=O)C(C)(C)C)c1` (stereo not shown) [Example 76, 1-(5-(3-fluoro-5-methylphenyl)-4,5-dihydro-1H-pyrazol-1-yl)-2,2-dimethyl-propan-1-one], the IC50 was 1 to 100 nM. With `CC(C)(C)C(=O)N1N=CC[C@H]1c1ccc(C#N)cc1` [Example 79, (S)-4-(1-pivaloyl-4,5-dihydro-1H-pyrazol-5-yl)-benzonitrile], the IC50 is 1 to 100 nM. With `CC(C)(C)C(=O)N1N=CCC1c1cccc(C#N)c1` (stereo not shown) [Example 80, 3-(1-pivaloyl-4,5-dihydro-1H-pyrazol-5-yl)benzonitrile], the IC50 was 1 to 100 nM.

For the compound `CC1=NN(C(=O)C(C)(C)C)C(c2ccccc2)C1` (stereo not shown) [Example 81, 2,2-dimethyl-1-(3-methyl-5-phenyl-4,5-dihydro-1H-pyrazol-1-yl)-propan-1-one], the IC50 was about 631 nM. To `CC1=NN(C(=O)C2CCN(c3ncc(F)cn3)CC2)C(c2ccccc2)C1` (stereo not shown) [Example 87, (1-(5-fluoro-pyrimidin-2-yl)-piperidin-4-yl)(3-methyl-5-phenyl-4,5-dihydro-1H-pyrazol-1-yl)-methanone] belongs 1 to 100 nM; to `O=C(c1cccc(Cl)n1)N1CCC(C(=O)N2N=CCC2c2ccccc2)CC1` (stereo not shown) [Example 105, (1-(6-chloro-picolinoyl)piperidin-4-yl)(5-phenyl-4,5-dihydro-1H-pyrazol-1-yl)methanone], 1 to 100 nM. For the compound `O=C(c1ccc(F)cn1)N1CCC(C(=O)N2N=CCC2c2ccccc2)CC1` (stereo not shown) [Example 108, (1-(5-fluoro-picolinoyl)piperidin-4-yl)(5-phenyl-4,5-dihydro-1H-pyrazol-1-yl)methanone], the IC50 is 1 to 100 nM. For the compound `O=C(c1nccs1)N1CCC(C(=O)N2N=CCC2c2ccccc2)CC1` (stereo not shown) [Example 112, (5-phenyl-4,5-dihydro-1H-pyrazol-1-yl)(1-(thiazole-2-carbonyl)piperidin-4-yl)methanone], the IC50 is 1 to 100 nM.

Consider `O=C(c1cocn1)N1CCC(C(=O)N2N=CCC2c2ccccc2)CC1` (stereo not shown) [Example 114, oxazol-4-yl(4-(5-phenyl-4,5-dihydro-1H-pyrazole-1-carbonyl)piperidin-1-yl)methanone], for which the IC50 is 1 to 100 nM. For the compound `Cc1ccc(C(=O)N2CCC(C(=O)N3N=CCC3c3ccccc3)CC2)s1` (stereo not shown) [Example 122, (5-methylthiophen-2-yl)(4-(5-phenyl-4,5-dihydro-1H-pyrazole-1-carbonyl)piperidin-1-yl)methanone], the IC50 was 1 to 100 nM.

`Cc1ncc(C(=O)N2CCC(C(=O)N3N=CCC3c3ccccc3)CC2)s1` (stereo not shown) [Example 124, (2-methylthiazol-5-yl)(4-(5-phenyl-4,5-dihydro-1H-pyrazole-1-carbonyl)piperidin-1-yl)methanone]: the IC50 was 1 to 100 nM. To `O=C(c1ccns1)N1CCC(C(=O)N2N=CCC2c2ccccc2)CC1` (stereo not shown) [Example 125, isothiazol-5-yl(4-(5-phenyl-4,5-dihydro-1H-pyrazole-1-carbonyl)piperidin-1-yl)methanone] belongs 1 to 100 nM; to `O=C(c1ccc(F)cc1)N1CCC(C(=O)N2N=CCC2c2ccccc2)CC1` (stereo not shown) [Example 130, (1-(4-fluoro-benzoyl)piperidin-4-yl)(5-phenyl-4,5-dihydro-1H-pyrazol-1-yl)methanone], 1 to 100 nM. The result for `O=C(c1ccc(F)cc1F)N1CCC(C(=O)N2N=CCC2c2ccccc2)CC1` (stereo not shown) [Example 131, (1-(2,4-difluorobenzoyl)piperidin-4-yl)(5-phenyl-4,5-dihydro-1H-pyrazol-1-yl)-methanone] reads 1 to 100 nM; that for `O=C(c1nc2ccccc2s1)N1CCC(C(=O)N2N=CCC2c2ccccc2)CC1` (stereo not shown) [Example 139, beno[d]thiazol-2-yl(4-(5-phenyl-4,5-dihydro-1H-pyrazole-1-carbonyl)piperidin-1-yl)methanone], 1 to 100 nM; that for `O=C(c1n[nH]c2ccccc12)N1CCC(C(=O)N2N=CCC2c2ccccc2)CC1` (stereo not shown) [Example 140, (1-(1H-indazole-3-carbonyl)piperidin-4-yl)(5-phenyl-4,5-dihydro-1H-pyrazol-1-yl)methanone], 1 to 100 nM. For `O=C(c1noc2ccccc12)N1CCC(C(=O)N2N=CCC2c2ccccc2)CC1` (stereo not shown) [Example 146, benzo[d]isoxazol-3-yl(4-(5-phenyl-4,5-dihydro-1H-pyrazole-1-carbonyl)piperidin-1-yl)methanone], the IC50 was 1 to 100 nM. On to `O=C(c1cnco1)N1CCC(C(=O)N2N=CCC2c2ccccc2)CC1` (stereo not shown) [Example 147, oxazol-5-yl(4-(5-phenyl-4,5-dihydro-1H-pyrazole-1-carbonyl)piperidin-1-yl)methanone], for which the IC50 was 1 to 100 nM.

On to `O=C(c1ncco1)N1CCC(C(=O)N2N=CCC2c2ccccc2)CC1` (stereo not shown) [Example 148, oxazol-2-yl(4-(5-phenyl-4,5-dihydro-1H-pyrazole-1-carbonyl)piperidin-1-yl)methanone], for which the IC50 was 1 to 100 nM. As to `O=C(c1ccno1)N1CCC(C(=O)N2N=CCC2c2ccccc2)CC1` (stereo not shown) [Example 151, isoxazol-5-yl(4-(5-phenyl-4,5-dihydro-1H-pyrazole-1-carbonyl)piperidin-1-yl)methanone], the IC50 was 1 to 100 nM. Consider `O=C(c1ccon1)N1CCC(C(=O)N2N=CCC2c2ccccc2)CC1` (stereo not shown) [Example 153, isoxazol-3-yl(4-(5-phenyl-4,5-dihydro-1H-pyrazole-1-carbonyl)piperidin-1-yl)methanone], for which the IC50 is 1 to 100 nM. For the compound `O=C(c1cscn1)N1CCC(C(=O)N2N=CCC2c2ccccc2)CC1` (stereo not shown) [Example 154, (5-phenyl-4,5-dihydro-1H-pyrazol-1-yl)(1-(thiazole-4-carbonyl)piperidin-4-yl)methanone], the IC50 is 1 to 100 nM. For the compound `O=C(c1ccccc1)N1CCC(C(=O)N2N=CCC2c2ccccc2)CC1` (stereo not shown) [Example 164, (1-benzoylpiperidin-4-yl)(5-phenyl-4,5-dihydro-1H-pyrazol-1-yl)methanone], the IC50 is 1 to 100 nM.

(Values after patent publication US10590085B2, “Heterocyclic amides as kinase inhibitors” (GlaxoSmithKline Intellectual Property Development Limited, priority 2015, dated 2020).)
